Experimental data as given in patent US8383631B2, “1,6-disubstituted-3-amino-4,5,6,7-tetrahydro-1H-pyrazolo[3,4-C]pyridin-7-one compounds and preparation thereof” (Korea Institute of Science and Technology, priority 2010, dated 2013).

Legend:
Format in all cases: cell-based
HT-29 = assay: SRB anticancer activity screening, HT-29; parameters: Inhibition % for cancer cells HT-29: dose or concentration left out as unconfirmed; settings: HT-29 human colon adenocarcinoma, 48 hours
Protocol: (§1) A-549 (human lung carcinoma), HT-29 (human colon adenocarcinoma), DU145 (human prostate cancer), SK-MEL-2 (human malignant melanoma) and SK-OV-3 (human ovary malignant ascites) cells were used to evaluate the anticancer activity of the test compounds. All the cancer cells are all tumors cells derived from human and were acquired from the Korean Cell Line Bank. RP MI 1640 medium containing 10% fetal bovine serum was used as a culture medium. Cell culturing was performed in a constant-temperature, constant-humidity incubator (37° C., 5% CO2). Subculturing was performed once in 3 days, using 0.25% trypsin-1 mM EDTA.
(§2) The sulforhodamine B ([…]) assay, which was developed in 1989 by the National Cancer Institute to measure in vitro anticancer activity of drugs, was employed.
(§3) The subcultured cells were transferred using trypsin-EDTA solution to a 96-well microplate, at 5×10^3 cells per well, and then cultured in a CO2 incubator for 24 hours. After removing the medium and adding a solution of the test compound (100 μL) diluted 4-fold, the cells were cultured for 48 hours. […] After completely lysing the cells by adding 10 mM Trizma base (pH 10.3, 200 μL) to each well, absorbance was measured at 520 nm.
(§4) In order to evaluate the activity of the test compound for the cancer cells, GI50 was calculated according to Equation 1 or 2. […]
(§5) Then, IC50 value was calculated from the inhibitory concentration.

A375P = assay: SRB anticancer activity screening, A375P; parameters: Inhibition % for cancer cells A375P: dose or concentration left out as unconfirmed; settings: A375P human melanoma cancer, 48 hours
HCT-116 = assay: SRB anticancer activity screening, HCT-116; parameters: Inhibition % for cancer cells HCT-116: dose or concentration left out as unconfirmed; settings: HCT-116 human colon cancer, 48 hours
DU-145 = assay: SRB anticancer activity screening, DU-145; parameters: Inhibition % for cancer cells DU-145: dose or concentration left out as unconfirmed; settings: DU-145 human prostate cancer, 48 hours
Protocol: as §1, §2, §3, §4, §5

| IC50 (HT-29; read-out: IC50 (μM) for cancer cells HT-29) [µM] | IC50 (A375P; read-out: IC50 (μM) for cancer cells A375P) [µM] | IC50 (HCT-116; read-out: IC50 (μM) for cancer cells HCT-116) [µM] | IC50 (DU-145; read-out: IC50 (μM) for cancer cells DU-145) [µM] | SMILES | Inhibition % for cancer cells HT-29 (HT-29) [%] | Inhibition % for cancer cells A375P (A375P) [%] | Inhibition % for cancer cells HCT-116 (HCT-116) [%] | Inhibition % for cancer cells DU-145 (DU-145) [%] |
| --- | --- | --- | --- | --- | --- | --- | --- | --- |
| 0.15 ± 0.01 | 0.34 ± 0.03 | 0.34 ± 0.01 | 0.4 ± 0.02 | Cc1ccc(N2CCN(CCC(=O)n3nc(N)c4c3C(=O)N(Cc3ccccc3)CC4)CC2)c(C)c1 [Compound 17, 3-amino-1-[{4-(2,4-dimethylphenyl)piperazin-1-yl}propanoyl]-6-N-benzyl-4,5,6,7-tetrahydro-1H-pyrazolo[3,4-c]pyridin-7-one] | – | – | – | – |
| – | – | – | – | Cc1ccc(N2CCc3c(N)nn(C(=O)CCN4CCN(c5ccc(Cl)cc5)CC4)c3C2=O)cc1 [Compound 9, 3-amino-1-[{4-(4-chlorophenyl)piperazin-1-yl}propanoyl]-6-N-(p-tolyl)-4,5,6,7-tetrahydro-1-H-pyrazolo[3,4-c]pyridin-7-one] | 90.54 | 95.03 | 92.19 | 80.02 |
